Experimental data reported in patent US10227329B2, “Compounds useful for treating disorders related to RET” (BLUEPRINT MEDICINES CORPORATION, priority 2016, dated 2019).

Tests used:
RET V804L = RET V804L (Homo sapiens (Human), UniProt P07949, V804L); assay: RET V804L Gatekeeper Mutant Assay at KM (Caliper electrophoretic mobility shift); assay type: biochemical; details: 10 μM ATP (KM), read-out: V480L Mutant
wild type RET = wild type RET (Homo sapiens (Human), UniProt P07949); assay: RET Wild Type Assay at KM (Caliper electrophoretic mobility shift); assay type: biochemical; details: 25 μM ATP (KM)
Chain of wild type RET (P07949 29-1114): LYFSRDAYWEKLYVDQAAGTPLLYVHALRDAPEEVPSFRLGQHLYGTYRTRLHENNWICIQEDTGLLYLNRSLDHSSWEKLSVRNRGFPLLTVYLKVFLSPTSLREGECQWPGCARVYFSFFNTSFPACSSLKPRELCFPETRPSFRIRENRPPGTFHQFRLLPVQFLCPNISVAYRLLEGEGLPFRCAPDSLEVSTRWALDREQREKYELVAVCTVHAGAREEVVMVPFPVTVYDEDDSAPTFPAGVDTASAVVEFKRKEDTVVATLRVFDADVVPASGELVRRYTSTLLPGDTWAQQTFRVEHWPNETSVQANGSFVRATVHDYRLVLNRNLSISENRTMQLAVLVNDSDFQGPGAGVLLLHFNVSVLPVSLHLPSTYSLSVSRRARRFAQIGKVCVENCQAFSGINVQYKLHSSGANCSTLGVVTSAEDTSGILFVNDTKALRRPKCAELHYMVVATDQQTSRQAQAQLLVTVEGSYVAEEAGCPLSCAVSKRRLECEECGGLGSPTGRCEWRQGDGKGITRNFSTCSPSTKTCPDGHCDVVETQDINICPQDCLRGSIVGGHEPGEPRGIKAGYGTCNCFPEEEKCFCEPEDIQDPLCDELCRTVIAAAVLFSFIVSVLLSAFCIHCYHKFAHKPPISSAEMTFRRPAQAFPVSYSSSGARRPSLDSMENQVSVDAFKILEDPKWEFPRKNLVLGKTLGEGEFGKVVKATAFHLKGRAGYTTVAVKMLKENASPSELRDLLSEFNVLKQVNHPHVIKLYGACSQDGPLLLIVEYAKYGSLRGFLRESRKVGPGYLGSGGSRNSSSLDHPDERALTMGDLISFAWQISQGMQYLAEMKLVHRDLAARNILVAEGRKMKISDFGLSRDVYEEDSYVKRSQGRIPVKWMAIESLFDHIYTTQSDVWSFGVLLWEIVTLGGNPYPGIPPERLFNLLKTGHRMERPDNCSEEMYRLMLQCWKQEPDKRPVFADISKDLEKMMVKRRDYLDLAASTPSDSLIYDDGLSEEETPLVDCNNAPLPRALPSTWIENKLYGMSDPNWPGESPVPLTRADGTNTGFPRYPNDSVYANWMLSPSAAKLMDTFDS

Chain of RET V804L (P07949 29-1114 V804L): as the sequence (P07949 29-1114) above, with V776L counted along it

| IC50 (RET V804L) [nM] | IC50 (wild type RET) [nM] | SMILES |
| --- | --- | --- |
| < 10 | < 10 | Cc1cc(Nc2cc(C)[nH]n2)nc(N2CC(C)(C(=O)NCc3ccc(-n4cc(F)cn4)nc3)C2)c1 [Compound 120] |
| < 10 | < 10 | Cc1cc(Nc2cc(C)c(F)c(N3CC(C(=O)N(C)[C@@H](C)c4ccc(-n5cc(F)cn5)nc4)C3)n2)n[nH]1 [Compound 171] |
| < 10 | < 10 | Cc1cc(Nc2cc(C)c(C#N)c(N3CC(F)(C(=O)N[C@@H](C)c4ccc(-n5cccn5)nc4)C3)n2)n[nH]1 [Compound 157] |
| < 10 | < 10 | Cc1cc(Nc2cc(C)[nH]n2)nc(N2CCC(O)(C(=O)N(C)[C@@H](C)c3ccc(-n4cccn4)nc3)CC2)n1 [Compound 187] |
| < 10 | < 10 | Cc1cc(Nc2cc(C)[nH]n2)nc(N2CC(C)(C(=O)N[C@@H](C)c3ccc(-n4cccn4)nc3)C2)c1 [Compound 117] |
| < 10 | < 10 | COC1(C(=O)N[C@@H](C)c2cnc(-n3cc(F)cn3)cn2)CCN(c2nc(C)cc(Nc3cc(C)[nH]n3)n2)CC1 [Compound 221] |
| < 10 | < 10 | COC1(C(=O)NCc2ccc(-n3cccn3)nc2)CCN(c2nc(C)cc(Nc3cc(C)[nH]n3)n2)CC1 [Compound 161, N-((6-(1H-pyrazol-1-yl)pyridin-3-yl)methyl)-4-methoxy-1-(4-methyl-6-((5-methyl-1H-pyrazol-3-yl)amino)pyrimidin-2-yl)piperidine-4-carboxamide] |
| < 10 | < 10 | COC1(C(=O)NCc2ccc(-n3ccc(C4CC4)n3)nc2)CN(c2nc(C)cc(Nc3cc(C)[nH]n3)n2)C1 [Compound 179] |
| < 10 | < 10 | Cc1cc(Nc2cc(C)c(C#N)c(N3CC(F)(C(=O)NCc4ccc(-n5cccn5)nc4)C3)n2)n[nH]1 [Compound 128] |
| < 10 | < 10 | COC1(C(=O)N[C@@H](C)c2ccc(-n3cc(F)cn3)nc2)CN(c2cc(C)cc(Nc3cc(C)[nH]n3)n2)C1 [Compound 167] |
| < 10 | < 10 | Cc1cc(Nc2cc(C)[nH]n2)nc(N2CC(F)(C(=O)N[C@@H](C)c3ccc(-n4cc(F)cn4)nc3)C2)n1 [Compound 153] |
| 10 to 100 | 10 to 100 | COC1(C(=O)NCc2ccc(-n3cc(C(F)F)cn3)nc2)CN(c2nc(C)cc(Nc3cc(C)[nH]n3)n2)C1 [Compound 203] |
| < 10 | < 10 | COC1(C(=O)N[C@@H](C)c2ccc(-n3cc(F)cn3)nc2)CCN(c2nccc(Nc3cc(C)[nH]n3)n2)CC1 [Compound 196] |
| < 10 | < 10 | CO[C@]1(C(=O)N[C@@H](C)c2ccc(-n3cc(F)cn3)nc2)CN(c2nc(C)cc(Nc3cc(C)[nH]n3)n2)[C@H]1C [Compound 199] |
| < 10 | < 10 | COC1(C(=O)N[C@@H](C)c2ccc(-n3cc(F)cn3)nc2)CCN(c2cc(C)nc(Nc3cc(C)[nH]n3)n2)CC1 [Compound 220] |
| < 10 | < 10 | Cc1cc(Nc2cc(C)c(C#N)c(N3CC(F)(C(=O)NCc4ccc(-n5cc(F)cn5)nc4)C3)n2)n[nH]1 [Compound 165] |
| 10 to 100 | 10 to 100 | COc1ccc([C@H](C)NC(=O)C2(O)CCN(c3cc(C)cc(Nc4cc(C)[nH]n4)n3)CC2)cc1 [Compound 114] |
| < 10 | < 10 | Cc1cc(Nc2cc(C)[nH]n2)nc(N2CC(C)(C(=O)N[C@@H](C)c3ccc(-n4cc(F)cn4)nc3)C2)c1 [Compound 139] |
| < 10 | < 10 | COC1(C(=O)NCc2ccc(-n3ccc(C)n3)nc2)CN(c2nc(C)cc(Nc3cc(C)[nH]n3)n2)C1 [Compound 137] |
| < 10 | < 10 | Cc1cc(Nc2cc(C)[nH]n2)nc(N2CC(F)(C(=O)NCc3ccc(-n4cc(F)cn4)nc3)C2)n1 [Compound 124] |
| < 10 | < 10 | Cc1cc(Nc2cc(C)[nH]n2)nc(N2CCC(CC#N)(C(=O)N[C@@H](C)c3ccc(-n4cccn4)nc3)CC2)n1 [Compound 206] |
| < 10 | < 10 | Cc1cc(Nc2cc(C)[nH]n2)nc(N2CC(C#N)(C(=O)N[C@@H](C)c3ccc(-n4cc(F)cn4)nc3)C2)n1 [Compound 159] |
| < 10 | < 10 | Cc1cc(Nc2cc(C)[nH]n2)nc(N2CCC(O)(C(=O)N(C)Cc3ccc(-n4cccn4)nc3)CC2)n1 [Compound 162] |
| 10 to 100 | 10 to 100 | COC1(C(=O)NCc2ccc(N3CCC(F)(F)C3)nc2)CN(c2nc(C)cc(Nc3cc(C)[nH]n3)n2)C1 [Compound 176] |
| < 10 | < 10 | COC1(C(=O)N[C@@H](C)c2ccc(-n3cccn3)nc2)CN(c2nc(Nc3cc(C)[nH]n3)cc(C)c2C#N)C1 [Compound 175] |
| 10 to 100 | 10 to 100 | CCOc1ccc(CNC(=O)C2(O)CCN(c3nc(C)cc(Nc4cc(C)[nH]n4)n3)CC2)cc1 [Compound 115] |
| < 10 | < 10 | COC1(C(=O)N(C)[C@@H](C)c2ccc(-n3cccn3)nc2)CCN(c2nc(C)cc(Nc3cc(C)[nH]n3)n2)CC1 [Compound 214] |

Further lines, the molecule ahead of its results:

| SMILES | IC50 (RET V804L) [nM] | IC50 (wild type RET) [nM] |
| --- | --- | --- |
| COC1(C(=O)NCc2ccc(-n3cccn3)nc2)CCN(c2cc(C)cc(Nc3cc(C)[nH]n3)n2)CC1 [Compound 160, N-((6-(1H-pyrazol-1-yl)pyridin-3-yl)methyl)-4-methoxy-1-(4-methyl-6-(3-methyl-1H-pyrazol-5-ylamino)pyridin-2-yl)piperidine-4-carboxamide] | < 10 | < 10 |
| COCCC1(C(=O)NCc2ccc(-n3cccn3)nc2)CCN(c2nc(C)cc(Nc3cc(C)[nH]n3)n2)CC1 [Compound 213] | < 10 | < 10 |
| COC1(C(=O)N[C@@H](C)c2ccc(-n3cccn3)nc2)CN(c2cc(C(F)F)cc(Nc3cc(C)[nH]n3)n2)C1 [Compound 201] | < 10 | < 10 |
| COC1(C(=O)NCc2ccc(-n3cc(F)cn3)nc2)CN(c2nc(Nc3cc(C)[nH]n3)cc(C)c2C#N)C1 [Compound 184] | < 10 | < 10 |
| CCC1(C(=O)NCc2ccc(-n3nc(C)cc3C)nc2)CCN(c2nc(C)cc(Nc3cc(C)[nH]n3)n2)CC1 [Compound 209] | < 10 | < 10 |
| COC1(C(=O)N[C@@H](C)c2ccc(-n3cccn3)nc2)CCN(c2nc(C)cc(Nc3cc(C)[nH]n3)n2)CC1 [Compound 186] | < 10 | < 10 |
| Cc1cc(Nc2cc(C)[nH]n2)nc(N2CC(F)(C(=O)NCc3ccc(-n4cccn4)nc3)C2)n1 [Compound 112] | < 10 | < 10 |
| Cc1cc(Nc2cc(C)[nH]n2)nc(N2CCC(O)(C(=O)N[C@@H](C)c3ccc(-n4cc(F)cn4)nc3)CC2)c1 [Compound 192] | < 10 | < 10 |
| Cc1cc(Nc2cc(C)[nH]n2)nc(N2CC(F)(C(=O)N[C@@H](C)c3ccc(-n4cc(F)cn4)nc3)C2)c1 [Compound 151] | < 10 | < 10 |
| COC1(C(=O)N[C@@H](C)c2ccc(-n3cc(F)cn3)nc2)CN(c2cc(C(F)F)cc(Nc3cc(C)[nH]n3)n2)C1 [Compound 223] | < 10 | < 10 |
| Cc1cc(Nc2cc(C)[nH]n2)nc(N2CCC(C)(C(=O)NCc3ccccc3)CC2)n1 [Compound 101] | 10 to 100 | 10 to 100 |
| CCC1(C(=O)NCc2ccc(-n3cc(F)cn3)nc2)CCN(c2nc(C)cc(Nc3cc(C)[nH]n3)n2)CC1 [Compound 190] | < 10 | < 10 |
| Cc1cc(Nc2cc(C)[nH]n2)nc(N2CC[C@H](C(=O)NCc3ccc(-n4cccn4)nc3)[C@@H](O)C2)c1 [Compound 132] | < 10 | < 10 |
| COC1(C(=O)NCc2ccc(-n3cc(C4CC4)cn3)nc2)CN(c2nc(C)cc(Nc3cc(C)[nH]n3)n2)C1 [Compound 178] | < 10 | < 10 |
| COC1(C(=O)NCc2ccc(-n3ccc(C4CC4)n3)nc2)CN(c2cc(C)cc(Nc3cc(C)[nH]n3)n2)C1 [Compound 177] | < 10 | < 10 |
| Cc1cc(Nc2cc(C)[nH]n2)nc(N2CC(C#N)(C(=O)N[C@@H](C)c3ccc(-n4cccn4)nc3)C2)n1 [Compound 126] | < 10 | < 10 |
| COC1(C(=O)N[C@@H](C)c2ccc(-n3cc(F)cn3)nc2)CN(c2cc(C)nc(Nc3cc(C)[nH]n3)n2)C1 [Compound 170] | < 10 | < 10 |
| Cc1cc(Nc2cc(C)[nH]n2)nc(N2CCC(O)(C(=O)NCc3ccccc3)CC2)c1 [Compound 102] | 10 to 100 | > 100 |
| COc1ccc(CNC(=O)C2(O)CCN(c3cc(C)cc(Nc4cc(C)[nH]n4)n3)CC2)cc1 [Compound 105] | 10 to 100 | 10 to 100 |
| Cc1cc(Nc2cc(C)c(C#N)c(N3CC(F)(C(=O)N[C@@H](C)c4ccc(-n5cc(F)cn5)nc4)C3)n2)n[nH]1 [Compound 189] | < 10 | < 10 |
| Cc1cc(Nc2cc(C)[nH]n2)nc(N2C[C@H](C(=O)N[C@@H](C)c3ccc(-n4cc(F)cn4)nc3)[C@H]2C)n1 [Compound 144] | < 10 | < 10 |
| COC1(C(=O)NCc2cnc(-n3ccc(C(F)F)n3)cn2)CN(c2nc(C)cc(Nc3cc(C)[nH]n3)n2)C1 [Compound 205] | < 10 | 10 to 100 |
| COC1(C(=O)NCc2ccc(N3CC(F)C3)nc2)CN(c2nc(C)cc(Nc3cc(C)[nH]n3)n2)C1 [Compound 125] | > 100 | > 100 |
| Cc1cc(Nc2cc(C)c(F)c(N3CC(C(=O)N[C@@H](C)c4ccc(-n5cc(F)cn5)nc4)C3)n2)n[nH]1 [Compound 152] | < 10 | < 10 |
| COC1(C(=O)N[C@@H](C)c2ccc(-n3cc(F)cn3)nc2)CN(c2nc(C)cc(Nc3cc(C)[nH]n3)n2)C1 [Compound 169] | < 10 | < 10 |
| Cc1cc(Nc2cc(C)[nH]n2)nc(N2CCC(C(=O)N[C@@H](C)c3ccc(-n4cc(F)cn4)nc3)CC2)c1 [Compound 164] | < 10 | < 10 |
| COC1(C(=O)NCc2ccc(-n3cc(F)cn3)nc2)CCN(c2cc(C)cc(Nc3cc(C)[nH]n3)n2)CC1 [Compound 193] | < 10 | < 10 |
